Entries after “also recorded” stand apart in the source; their conditions may differ.

For assay [1], the system named is Porcine Reproductive and Respiratory Syndrome virus (PRRS). The experiment in a line: Cytopathic effect (CPE) in Vero cells infected with PRRS virus, MCFA mixtures added. Format: cell-based. The arrangement: key: 4 = total destruction of the cells; 3 = medium destruction; 2 = low destruction; 1 = no destruction. The following applies: 0.1% concentration in tissue culture, 5 days post infection. A general note: Cytopathic effects are the visible damage that an infection or toxin causes in cultured cells.

A further assay concerns ASF. The arrangement: species or system African Swine Fever Virus.
In the next assay the test system is PED virus. Format: cell-based, Porcine Epidemic Diarrhea virus.
For assay [2], the system named is African Swine Fever Virus (ASFV).

With `CCCCCC(=O)O` [100% C6, caproic acid], in assay [1], the “CPE (first test)” value is 3/3 and the “CPE (second test)” value is 3/3.
Consider `CCCCCCCC(=O)O` [100% C8, caprylic acid], for which, in assay [1], the “CPE (first test)” value is given as 2/2 and the “CPE (second test)” value is 2/2.
Consider `CCCCCCCCC(=O)O` [100% C9, pelargonic acid], for which, in assay [1], the “CPE (first test)” value is listed as 2/2 and the “CPE (second test)” value is 2/2. For the same compound, in the assay on ASF, the “Viral load of ASF compared with ester form or untreated feed” value is listed as “significantly reduced the viral load”. In the assay with PED virus, the “Protection against viral infection and cytolytic effect of the cells” value is “gave the best results”.
For `CCCCCCCCCC(=O)O` [100% C10, capric acid], in assay [1], the “CPE (first test)” value is listed as 2 and the “CPE (second test)” value was found to be 4.
`CCCCCCCCC(=O)O` [Composition F1, pelargonic acid]: the “Cq value for ASFV compared to positive control” value in assay [2] was “significantly increase the Cq value; also recorded: induced a statistical increase in Cq value”.
